Experimental data from US4759880A, “Alkanoarachidonic acids” (Research Corporation, priority 1984, dated 1988).

Legend:
[1] = target: T1, 5-lipoxygenase (Rattus norvegicus, UniProt P12527); assay: Inhibition of conversion of 14C-AA to 14C-5-HETE in supernatant from RBL-1 cells; type: biochemical
T1 construct: super natant from RBL-1 cells; endogenous in cells; host or cells: RBL-1 cells (supernatant)
T1 sequence (P12527 1-673): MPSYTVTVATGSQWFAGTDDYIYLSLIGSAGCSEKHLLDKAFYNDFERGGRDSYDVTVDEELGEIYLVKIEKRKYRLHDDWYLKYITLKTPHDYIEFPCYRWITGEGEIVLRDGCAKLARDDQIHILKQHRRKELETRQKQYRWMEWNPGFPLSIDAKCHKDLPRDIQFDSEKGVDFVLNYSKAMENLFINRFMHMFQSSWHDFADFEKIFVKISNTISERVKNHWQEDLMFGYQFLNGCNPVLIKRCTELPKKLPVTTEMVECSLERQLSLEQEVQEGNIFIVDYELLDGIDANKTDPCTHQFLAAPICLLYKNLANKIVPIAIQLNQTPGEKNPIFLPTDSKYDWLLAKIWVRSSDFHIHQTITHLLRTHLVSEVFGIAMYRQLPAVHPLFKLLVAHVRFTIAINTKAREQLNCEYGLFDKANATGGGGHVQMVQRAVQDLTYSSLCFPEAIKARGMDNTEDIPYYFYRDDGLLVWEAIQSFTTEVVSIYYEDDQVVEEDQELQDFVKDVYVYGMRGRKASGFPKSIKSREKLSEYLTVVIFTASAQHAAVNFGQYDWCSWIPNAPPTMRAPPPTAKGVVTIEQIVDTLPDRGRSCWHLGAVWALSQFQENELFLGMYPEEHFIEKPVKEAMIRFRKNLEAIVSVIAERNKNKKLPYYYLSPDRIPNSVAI
Excerpt: (§1) Biological studies to define the profiles of these compounds reveal interesting and selective properties including, in vitro inhibition of SRS-A biosynthesis, 5-lipoxygenase inhibition, phospholiphase A2 inhibition and antithrombotic activity.

[2] = tested on: human gel-filtered platelet suspension; assay: Inhibition of AA-induced platelet aggregation; type: cell-based; conditions: human gel-filtered platelet suspension containing 0.2% albumin
Excerpt: as §1

`CCCCC/C=C\C/C=C\C/C=C\C1(/C=C\CCCC(=O)O)CC1` [compound 1] gave an inhibition at 100 µM [1] of 86% and an inhibition at 80 µM [2] of 50%.
